Data from US8288552B2, “Dihydropyridone amidesas P2X7 modulators” (Roche Palo Alto LLC, priority 2008, dated 2012).

The compounds below were run against T1, P2X7 (UniProt Q99572) (assay: P2X7 pKi of Table 1).
T1 sequence (Q99572 1-595): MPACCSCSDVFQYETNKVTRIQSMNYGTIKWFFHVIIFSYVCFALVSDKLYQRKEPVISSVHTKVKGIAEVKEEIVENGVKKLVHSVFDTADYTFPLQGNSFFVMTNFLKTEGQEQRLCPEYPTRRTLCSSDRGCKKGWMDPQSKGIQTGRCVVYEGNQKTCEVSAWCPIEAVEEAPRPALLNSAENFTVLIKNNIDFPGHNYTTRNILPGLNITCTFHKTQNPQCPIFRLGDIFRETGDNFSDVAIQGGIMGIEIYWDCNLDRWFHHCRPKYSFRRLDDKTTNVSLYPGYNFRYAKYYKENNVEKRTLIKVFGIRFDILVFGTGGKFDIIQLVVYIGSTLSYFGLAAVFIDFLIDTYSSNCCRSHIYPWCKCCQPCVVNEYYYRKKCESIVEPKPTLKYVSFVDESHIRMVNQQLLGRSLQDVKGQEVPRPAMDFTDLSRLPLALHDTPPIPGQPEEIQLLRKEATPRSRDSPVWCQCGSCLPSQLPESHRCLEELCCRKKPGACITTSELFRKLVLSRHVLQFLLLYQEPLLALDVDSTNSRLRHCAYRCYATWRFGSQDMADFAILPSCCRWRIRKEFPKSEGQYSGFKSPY
Format: cell-based
Protocol: Intracellular Calcium Flux (FLIPR) Assay
Compound and Reagent Preparation
Stock solutions of compounds were prepared from powders as a 10 mM DMSO stock solution. These solutions were stored at RT during the two week period of these experiments to prevent freeze-thaw of the DMSO stocks. The DMSO stocks were added to the appropriate assay buffer at a concentration of 10 μM, and then diluted serially to the final concentrations that were tested. […] The aqueous solutions of compounds as well as ATP (Sigma A7699) and BzATP (Sigma B6396) were prepared fresh for each day of experiment.
1321N1 cells stably expressing the full length human P2X7 gene (1321N1-hP2X7) and HEK293 cells stably expressing the full length rat P2X7 gene (HEK293-rP2X7) were obtained from the Roche Cell Culture Facility. 1321N1-hP2X7 cells were grown in Dulbecco's Modified Eagle's Medium (DMEM) high glucose supplemented with 10% FBS and 250 μg/mL G418. HEK293-rP2X7 cells were grown in DMEM/F-12 supplemented with 10% FBS, 1 mM CaCl2, 2 mM MgCl2, 2 mM L-Glutamine and 500 μg/ml G418. Cells were split such that they never became >70% confluent.
Intracellular Calcium Flux (FLIPR)
On the day prior to the experiment, 1321N1-hP2X7 or HEK293-rP2X7 cells were released into suspension with calcium-free PBS+Versene and washed by centrifugation with calcium-free PBS to remove the Versene. Cells were resuspended in growth medium at a density of 2.5×10^5 cells/mL and seeded into black walled, clear bottom 96 well plates (50,000 cells/well) approximately 18 hr prior to intracellular calcium flux experiments.
On the day of the experiment, plates were washed with FLIPR buffer (calcium- and magnesium-free Hank's Balanced Salt Solution (HBSS) supplemented with 10 mM Hepes, 2.5 mM probenecid and 2 mM calcium chloride) using a BIO-TEK 96 channel plate washer and incubated with […] fluo-3 dye at 37° C. for one hr. The dye was then removed by plate washing and the cells were allowed to equilibrate for 20 min at room temperature with antagonist or vehicle (FLIPR buffer). Agonist (100 μM BzATP final concentration for hP2X7; 5 μM BzATP final concentration or rP2X7) was added online with the FLIPR and fluorescence measurements made at 1 sec intervals for 60 sec followed by 3 sec intervals for a further 4 min (5 min total). A final addition of 5 μM ionomycin was made and the maximal BzATP-evoked fluorescence normalized to the maximal ionomycin-evoked fluorescence.

Going from COc1cc(NC(=O)C2=CNC(=O)C[C@@H]2c2cccc(F)c2)c(Br)cc1C [Compound 29, (R)-4-(3-Fluoro-phenyl)-6-oxo-1,4,5,6-tetrahydro-pyridine-3-carboxylic acid(2-bromo-5-methoxy-4-methyl-phenyl)-amide] to COc1cc(NC(=O)C2=CNC(=O)C[C@H]2c2cccc(F)c2)c(Br)cc1C [Compound 33, (S)-4-(3-Fluoro-phenyl)-6-oxo-1,4,5,6-tetrahydro-pyridine-3-carboxylic acid(2-bromo-5-methoxy-4-methyl-phenyl)-amide], the pKi rises from 6.405 to 7.195.

First: COc1cc(Br)c(NC(=O)C2=CNC(=O)C[C@H]2c2cccc(F)c2)cc1OC [Compound 30, (S)-4-(3-Fluoro-phenyl)-6-oxo-1,4,5,6-tetrahydro-pyridine-3-carboxylic acid(2-bromo-4,5-dimethoxy-phenyl)-amide]
Second: COc1cc(Br)c(NC(=O)C2=CNC(=O)C[C@@H]2c2cccc(F)c2)cc1OC [Compound 34, (R)-4-(3-Fluoro-phenyl)-6-oxo-1,4,5,6-tetrahydro-pyridine-3-carboxylic acid(2-bromo-4,5-dimethoxy-phenyl)-amide]
The pKi of the first is higher: 8.045 for the first, 6.9783 for the second.

Compared with COc1cc(Br)c(NC(=O)C2=CN(C)C(=O)CC2c2ccc(F)cc2)cc1OC (centres unmarked) [Compound 31, 4-(4-Fluoro-phenyl)-1-methyl-6-oxo-1,4,5,6-tetrahydro-pyridine-3-carboxylic acid(2-bromo-4,5-dimethoxy-phenyl)-amide], COc1cc(Br)c(NC(=O)C2=CN(C)C(=O)C[C@H]2c2ccc(F)cc2)cc1OC [Compound 44, (S)-4-(4-Fluoro-phenyl)-1-methyl-6-oxo-1,4,5,6-tetrahydro-pyridine-3-carboxylic acid(2-bromo-4,5-dimethoxy-phenyl)-amide] is lower in pKi: 6.525 for the first, 5.875 for the second.

Going from COc1cc(C)c(NC(=O)C2=CNC(=O)CC2c2ccc(F)cc2)cc1OC (centres unmarked) [Compound 32, 4-(4-Fluoro-phenyl)-6-oxo-1,4,5,6-tetrahydro-pyridine-3-carboxylic acid(4,5-dimethoxy-2-methyl-phenyl)-amide] to COc1cc(C)c(NC(=O)C2=CNC(=O)C[C@@H]2c2ccc(F)cc2)cc1OC [Compound 41, (R)-4-(4-Fluoro-phenyl)-6-oxo-1,4,5,6-tetrahydro-pyridine-3-carboxylic acid (4,5-dimethoxy-2-methyl-phenyl)-amide], the pKi falls from 7.98 to 7.225.

First: COc1cc(NC(=O)C2=CNC(=O)CC2c2cccc(F)c2)c(Br)cc1F (centres unmarked) [Compound 35, 4-(3-Fluoro-phenyl)-6-oxo-1,4,5,6-tetrahydro-pyridine-3-carboxylic acid(2-bromo-4-fluoro-5-methoxy-phenyl)-amide]
Second: COc1cc(C)c(NC(=O)C2=CNC(=O)C[C@H]2c2cccc(F)c2)cc1OC [Compound 48, (S)-4-(3-Fluoro-phenyl)-6-oxo-1,4,5,6-tetrahydro-pyridine-3-carboxylic acid (4,5-dimethoxy-2-methyl-phenyl)-amide]
The pKi of the first is lower: 6.65 for the first, 7.7225 for the second.

Compared with Cc1ccc(C)c(NC(=O)C2=CNC(=O)CC2c2ccc(F)cc2)c1 (centres unmarked) [Compound 36, 4-(4-Fluoro-phenyl)-6-oxo-1,4,5,6-tetrahydro-pyridine-3-carboxylic acid(2,5-dimethyl-phenyl)-amide], Cc1ccc(C)c(NC(=O)C2=CNC(=O)C[C@@H]2c2ccc(F)cc2)c1 [Compound 55, (R)-4-(4-Fluoro-phenyl)-6-oxo-1,4,5,6-tetrahydro-pyridine-3-carboxylic acid (2,5-dimethyl-phenyl)-amide] is higher in pKi: 6.93 for the first, 7.535 for the second.

Compared with Cc1cccc(NC(=O)C2=CNC(=O)CC2c2ccc(F)cc2)c1C (centres unmarked) [Compound 37, 4-(4-Fluoro-phenyl)-6-oxo-1,4,5,6-tetrahydro-pyridine-3-carboxylic acid(2,3-dimethyl-phenyl)-amide], Cc1ccc(C)c(NC(=O)C2=CNC(=O)C[C@H]2c2ccc(F)cc2)c1 [Compound 56, (S)-4-(4-Fluoro-phenyl)-6-oxo-1,4,5,6-tetrahydro-pyridine-3-carboxylic acid (2,5-dimethyl-phenyl)-amide] is lower in pKi: 7.12 for the first, 6.56 for the second.

Compared with Cc1ccc(Br)c(NC(=O)C2=CNC(=O)CC2c2ccc(F)cc2)c1 (centres unmarked) [Compound 38, 4-(4-Fluoro-phenyl)-6-oxo-1,4,5,6-tetrahydro-pyridine-3-carboxylic acid(2-bromo-5-methyl-phenyl)-amide], Cc1cc(C)c(Br)c(NC(=O)C2=CNC(=O)CC2c2ccc(F)cc2)c1 (centres unmarked) [Compound 49, 4-(4-Fluoro-phenyl)-6-oxo-1,4,5,6-tetrahydro-pyridine-3-carboxylic acid(2-bromo-3,5-dimethyl-phenyl)-amide] is higher in pKi: 6.87 for the first, 7.48 for the second.

First: COc1cc(Br)c(NC(=O)C2=CNC(=O)C[C@@H]2c2ccc(F)cc2)cc1OC [Compound 39, (R)-4-(4-Fluoro-phenyl)-6-oxo-1,4,5,6-tetrahydro-pyridine-3-carboxylic acid(2-bromo-4,5-dimethoxy-phenyl)-amide]
Second: COc1cc(Br)c(NC(=O)C2=CNC(=O)C[C@H]2c2ccc(F)cc2)cc1OC [Compound 40, (S)-4-(4-Fluoro-phenyl)-6-oxo-1,4,5,6-tetrahydro-pyridine-3-carboxylic acid(2-bromo-4,5-dimethoxy-phenyl)-amide]
The pKi of the first is lower: 6.99 for the first, 7.895 for the second.

First: COc1cc(C)c(NC(=O)C2=CNC(=O)C[C@H]2c2ccc(F)cc2)cc1OC [Compound 42, (S)-4-(4-Fluoro-phenyl)-6-oxo-1,4,5,6-tetrahydro-pyridine-3-carboxylic acid (4,5-dimethoxy-2-methyl-phenyl)-amide]
Second: COc1cc(NC(=O)C2=CNC(=O)CC2c2ccc(F)cc2)c(C)cc1F (centres unmarked) [Compound 54, 4-(4-Fluoro-phenyl)-6-oxo-1,4,5,6-tetrahydro-pyridine-3-carboxylic acid(4-fluoro-5-methoxy-2-methyl-phenyl)-amide]
The pKi of the first is higher: 7.993 for the first, 7.02 for the second.

Compared with COc1ccc(C)c(NC(=O)C2=CNC(=O)C[C@@H]2c2cccc(F)c2)c1 [Compound 45, (R)-4-(3-Fluoro-phenyl)-6-oxo-1,4,5,6-tetrahydro-pyridine-3-carboxylic acid(5-methoxy-2-methyl-phenyl)-amide], COc1ccc(C)c(NC(=O)C2=CNC(=O)C[C@H]2c2cccc(F)c2)c1 [Compound 46, (S)-4-(3-Fluoro-phenyl)-6-oxo-1,4,5,6-tetrahydro-pyridine-3-carboxylic acid(5-methoxy-2-methyl-phenyl)-amide] is higher in pKi: 6.765 for the first, 7.695 for the second.

Compared with Cc1ccc(C(F)(F)F)cc1NC(=O)C1=CNC(=O)CC1c1cccc(F)c1 (centres unmarked) [Compound 50, 4-(3-Fluoro-phenyl)-6-oxo-1,4,5,6-tetrahydro-pyridine-3-carboxylic acid(2-methyl-5-trifluoromethyl-phenyl)-amide], Cc1ccc(C(C)C)cc1NC(=O)C1=CNC(=O)CC1c1cccc(F)c1 (centres unmarked) [Compound 51, 4-(3-Fluoro-phenyl)-6-oxo-1,4,5,6-tetrahydro-pyridine-3-carboxylic acid(5-isopropyl-2-methyl-phenyl)-amide] is higher in pKi: 6.89 for the first, 7.445 for the second.

First: CCN(CC)S(=O)(=O)c1ccc(Cl)c(NC(=O)C2=CNC(=O)CC2c2cccc(F)c2)c1 (centres unmarked) [Compound 52, 4-(3-Fluoro-phenyl)-6-oxo-1,4,5,6-tetrahydro-pyridine-3-carboxylic acid(2-chloro-5-diethylsulfamoyl-phenyl)-amide]
Second: O=C1CC(c2cccc(F)c2)C(C(=O)Nc2cccc3c2CCCC3)=CN1 (centres unmarked) [Compound 53, 4-(3-Fluoro-phenyl)-6-oxo-1,4,5,6-tetrahydro-pyridine-3-carboxylic acid(5,6,7,8-tetrahydro-naphthalen-1-yl)-amide]
The pKi of the first is lower: 6.02 for the first, 6.83 for the second.
